The results in this text go back to US12275731B2, “Azaindole inhibitors of wild-type and mutant forms of LRRK2” (DANA-FARBER CANCER INSTITUTE, INC., priority 2018, dated 2025).

SMILES strings stand for the structures.

What all share (test): KinomeScan profiling
Common to all, as to type: binding

The target in assay [1] is T1, ABL1(T315I)-nonphosphorylated (Homo sapiens, UniProt P00519, T315I).
T1 construct: purchased KinomeScan®
The conditions noted are these: read-out: % control. An outline of the steps: (§1)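 Luminescence (RLU) was converted to percent of control, with DMSO set as 100% and a reference compound as 0%. Test compounds were run at 1 μM against 468 kinases. Kinases showing below 35% of control were scored as bound.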

In assay [2] the target is MYO3A (Homo sapiens, UniProt Q8NEV4). To be noted: read-out: % control. The essentials:
as §1

In assay [3] the target is TNIK (Homo sapiens, UniProt Q9UKE5). The conditions noted are these: read-out: % control. An outline of the steps: as §1
Sequence of TNIK (Q9UKE5 whole entry): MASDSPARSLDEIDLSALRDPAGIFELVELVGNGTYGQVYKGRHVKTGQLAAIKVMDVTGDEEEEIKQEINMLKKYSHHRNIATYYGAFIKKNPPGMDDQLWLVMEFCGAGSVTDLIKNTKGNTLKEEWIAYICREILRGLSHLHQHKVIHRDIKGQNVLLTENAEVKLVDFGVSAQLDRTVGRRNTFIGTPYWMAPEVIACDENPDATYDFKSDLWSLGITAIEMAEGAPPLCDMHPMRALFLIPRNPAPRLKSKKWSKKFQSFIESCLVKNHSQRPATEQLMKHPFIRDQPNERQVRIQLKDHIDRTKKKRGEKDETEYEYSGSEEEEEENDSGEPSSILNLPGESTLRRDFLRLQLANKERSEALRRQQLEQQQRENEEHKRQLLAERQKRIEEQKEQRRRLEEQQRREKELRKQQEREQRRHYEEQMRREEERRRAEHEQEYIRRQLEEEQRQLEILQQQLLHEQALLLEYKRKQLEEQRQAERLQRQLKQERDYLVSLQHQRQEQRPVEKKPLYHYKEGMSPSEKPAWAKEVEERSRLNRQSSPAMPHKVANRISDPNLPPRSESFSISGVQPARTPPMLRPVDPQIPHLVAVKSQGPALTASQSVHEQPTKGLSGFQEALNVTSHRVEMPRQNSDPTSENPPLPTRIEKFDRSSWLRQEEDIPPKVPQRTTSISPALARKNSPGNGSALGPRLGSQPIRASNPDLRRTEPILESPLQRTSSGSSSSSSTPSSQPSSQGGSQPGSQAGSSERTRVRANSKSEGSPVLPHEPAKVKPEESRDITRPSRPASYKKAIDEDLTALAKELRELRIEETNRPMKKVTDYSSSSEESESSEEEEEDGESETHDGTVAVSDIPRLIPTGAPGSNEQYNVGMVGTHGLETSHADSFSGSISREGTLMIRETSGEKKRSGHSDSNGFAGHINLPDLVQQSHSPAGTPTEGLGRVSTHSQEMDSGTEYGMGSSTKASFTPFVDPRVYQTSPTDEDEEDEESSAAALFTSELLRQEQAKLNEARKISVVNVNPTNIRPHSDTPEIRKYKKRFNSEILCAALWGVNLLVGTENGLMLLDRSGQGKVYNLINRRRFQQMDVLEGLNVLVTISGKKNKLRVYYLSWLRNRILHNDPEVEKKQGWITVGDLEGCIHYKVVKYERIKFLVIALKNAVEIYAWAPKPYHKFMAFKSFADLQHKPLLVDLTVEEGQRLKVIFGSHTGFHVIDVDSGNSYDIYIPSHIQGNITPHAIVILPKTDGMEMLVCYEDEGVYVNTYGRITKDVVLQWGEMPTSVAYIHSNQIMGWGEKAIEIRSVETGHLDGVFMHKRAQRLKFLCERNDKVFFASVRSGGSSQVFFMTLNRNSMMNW
Assay [4] deals with MRCKB (Homo sapiens, UniProt Q9Y5S2). The conditions noted are these: read-out: % control. An outline of the steps:
as §1

Assay [5] has as its target CSNK2A1 (Homo sapiens, UniProt P68400). The conditions noted are these: CSNK2A1, 1 μM; read-out: % control. The essentials: as §1
The target in assay [6] is T2, BMPR1A (Homo sapiens, UniProt P36894).
T2 construct: purchased KinomeScan®
T2 sequence (P36894 24-532): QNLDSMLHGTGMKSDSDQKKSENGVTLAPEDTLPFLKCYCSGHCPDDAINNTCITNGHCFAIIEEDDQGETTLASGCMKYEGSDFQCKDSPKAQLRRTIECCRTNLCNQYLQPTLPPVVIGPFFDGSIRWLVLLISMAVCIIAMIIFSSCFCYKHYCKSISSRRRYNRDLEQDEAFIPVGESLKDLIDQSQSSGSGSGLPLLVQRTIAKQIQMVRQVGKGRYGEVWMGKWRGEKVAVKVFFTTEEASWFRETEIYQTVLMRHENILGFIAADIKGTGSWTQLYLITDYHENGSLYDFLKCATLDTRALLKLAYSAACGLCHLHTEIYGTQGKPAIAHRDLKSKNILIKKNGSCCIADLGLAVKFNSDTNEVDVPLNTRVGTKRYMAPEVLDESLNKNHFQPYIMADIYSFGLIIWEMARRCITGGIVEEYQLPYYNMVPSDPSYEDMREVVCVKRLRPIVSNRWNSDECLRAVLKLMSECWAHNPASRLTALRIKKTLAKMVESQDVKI
To be noted: read-out: % control. The essentials: as §1

The target in assay [7] is PDGFRA (Homo sapiens, UniProt P16234). To be noted: read-out: % control. The essentials: as §1
Sequence of PDGFRA (P16234 24-1089): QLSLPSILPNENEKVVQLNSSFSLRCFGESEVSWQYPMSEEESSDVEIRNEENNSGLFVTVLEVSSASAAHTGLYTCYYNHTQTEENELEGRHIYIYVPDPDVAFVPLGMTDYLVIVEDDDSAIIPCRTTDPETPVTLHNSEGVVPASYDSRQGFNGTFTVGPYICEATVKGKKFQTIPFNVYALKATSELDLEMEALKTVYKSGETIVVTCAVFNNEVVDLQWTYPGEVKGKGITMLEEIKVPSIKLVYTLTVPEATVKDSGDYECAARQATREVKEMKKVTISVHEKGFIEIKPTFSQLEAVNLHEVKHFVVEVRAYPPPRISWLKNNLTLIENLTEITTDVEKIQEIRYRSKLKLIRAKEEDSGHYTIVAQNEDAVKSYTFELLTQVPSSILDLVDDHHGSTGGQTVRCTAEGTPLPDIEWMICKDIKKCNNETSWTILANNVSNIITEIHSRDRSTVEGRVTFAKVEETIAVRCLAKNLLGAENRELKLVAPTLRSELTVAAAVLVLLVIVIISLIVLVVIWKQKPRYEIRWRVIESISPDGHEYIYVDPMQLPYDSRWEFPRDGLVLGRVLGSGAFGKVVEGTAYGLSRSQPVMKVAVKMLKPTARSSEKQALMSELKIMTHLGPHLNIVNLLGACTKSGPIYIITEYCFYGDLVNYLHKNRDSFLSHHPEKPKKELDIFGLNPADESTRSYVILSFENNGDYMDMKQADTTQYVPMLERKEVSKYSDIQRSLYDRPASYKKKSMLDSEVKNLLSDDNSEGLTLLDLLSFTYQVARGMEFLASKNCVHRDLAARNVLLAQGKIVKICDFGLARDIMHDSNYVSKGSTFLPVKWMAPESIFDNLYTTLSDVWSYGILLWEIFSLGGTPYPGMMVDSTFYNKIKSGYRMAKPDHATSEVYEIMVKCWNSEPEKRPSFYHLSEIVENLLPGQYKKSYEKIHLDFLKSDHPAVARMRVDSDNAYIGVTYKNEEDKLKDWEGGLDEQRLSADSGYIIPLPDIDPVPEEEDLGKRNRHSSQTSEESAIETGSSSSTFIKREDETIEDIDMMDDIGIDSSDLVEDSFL
In assay [8] the target is T3, EPHB2 (Homo sapiens, UniProt P29323).
T3 sequence (P29323 19-1055): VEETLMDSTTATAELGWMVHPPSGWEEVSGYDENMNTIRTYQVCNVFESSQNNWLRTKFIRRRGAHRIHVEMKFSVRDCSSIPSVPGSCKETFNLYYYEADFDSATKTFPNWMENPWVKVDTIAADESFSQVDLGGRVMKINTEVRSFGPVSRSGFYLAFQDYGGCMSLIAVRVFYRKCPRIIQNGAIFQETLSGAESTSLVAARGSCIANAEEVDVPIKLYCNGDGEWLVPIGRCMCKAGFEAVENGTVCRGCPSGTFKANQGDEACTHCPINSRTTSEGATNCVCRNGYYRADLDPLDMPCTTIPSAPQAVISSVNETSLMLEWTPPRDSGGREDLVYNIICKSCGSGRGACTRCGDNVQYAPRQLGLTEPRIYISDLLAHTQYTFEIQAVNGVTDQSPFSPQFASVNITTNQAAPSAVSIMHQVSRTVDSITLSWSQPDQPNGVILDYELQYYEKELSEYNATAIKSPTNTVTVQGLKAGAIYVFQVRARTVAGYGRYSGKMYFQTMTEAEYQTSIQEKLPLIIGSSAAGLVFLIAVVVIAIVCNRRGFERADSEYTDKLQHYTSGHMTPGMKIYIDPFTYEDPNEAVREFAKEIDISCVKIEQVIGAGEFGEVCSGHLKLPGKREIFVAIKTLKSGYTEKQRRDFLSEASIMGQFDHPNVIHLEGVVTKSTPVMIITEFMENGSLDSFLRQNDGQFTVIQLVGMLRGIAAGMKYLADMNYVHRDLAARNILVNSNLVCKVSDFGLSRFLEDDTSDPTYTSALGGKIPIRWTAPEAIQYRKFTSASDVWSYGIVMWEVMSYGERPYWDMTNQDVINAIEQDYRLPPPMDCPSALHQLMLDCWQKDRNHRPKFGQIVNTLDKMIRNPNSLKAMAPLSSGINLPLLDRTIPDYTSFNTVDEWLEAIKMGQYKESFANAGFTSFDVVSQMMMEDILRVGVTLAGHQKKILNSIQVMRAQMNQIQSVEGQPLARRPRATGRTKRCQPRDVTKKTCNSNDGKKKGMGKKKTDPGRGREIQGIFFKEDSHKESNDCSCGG
The conditions noted are these: EPHB2, 1 μM; read-out: % control. An outline of the steps: as §1

Assay [9] concerns the target T4, ICK (Homo sapiens, UniProt Q9UPZ9).
T4 sequence (Q9UPZ9 1-632): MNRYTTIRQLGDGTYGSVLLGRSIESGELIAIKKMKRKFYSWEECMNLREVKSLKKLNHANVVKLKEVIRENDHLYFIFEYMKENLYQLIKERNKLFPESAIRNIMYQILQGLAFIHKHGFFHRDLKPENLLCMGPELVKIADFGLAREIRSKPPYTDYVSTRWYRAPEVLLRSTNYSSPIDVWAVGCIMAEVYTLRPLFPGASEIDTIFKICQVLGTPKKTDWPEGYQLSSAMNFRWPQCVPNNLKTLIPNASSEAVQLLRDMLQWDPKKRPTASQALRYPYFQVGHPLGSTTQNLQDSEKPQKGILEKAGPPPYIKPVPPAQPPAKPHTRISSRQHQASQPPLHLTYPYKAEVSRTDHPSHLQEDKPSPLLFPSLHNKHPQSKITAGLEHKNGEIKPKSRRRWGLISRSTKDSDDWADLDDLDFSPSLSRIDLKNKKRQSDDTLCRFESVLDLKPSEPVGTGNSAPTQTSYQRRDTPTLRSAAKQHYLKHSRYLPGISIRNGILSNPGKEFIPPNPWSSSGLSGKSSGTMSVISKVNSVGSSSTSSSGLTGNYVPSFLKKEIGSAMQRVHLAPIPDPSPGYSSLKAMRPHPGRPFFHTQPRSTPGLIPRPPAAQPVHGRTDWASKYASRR
The conditions noted are these: read-out: % control. The essentials: as §1

Assay [10] has as its target T5, KIT(A829P) (Homo sapiens, UniProt P10721, A829P).
T5 construct: purchased KinomeScan®
To be noted: read-out: % control. An outline of the steps:
as §1

T5 sequence (P10721 26-976 A829P): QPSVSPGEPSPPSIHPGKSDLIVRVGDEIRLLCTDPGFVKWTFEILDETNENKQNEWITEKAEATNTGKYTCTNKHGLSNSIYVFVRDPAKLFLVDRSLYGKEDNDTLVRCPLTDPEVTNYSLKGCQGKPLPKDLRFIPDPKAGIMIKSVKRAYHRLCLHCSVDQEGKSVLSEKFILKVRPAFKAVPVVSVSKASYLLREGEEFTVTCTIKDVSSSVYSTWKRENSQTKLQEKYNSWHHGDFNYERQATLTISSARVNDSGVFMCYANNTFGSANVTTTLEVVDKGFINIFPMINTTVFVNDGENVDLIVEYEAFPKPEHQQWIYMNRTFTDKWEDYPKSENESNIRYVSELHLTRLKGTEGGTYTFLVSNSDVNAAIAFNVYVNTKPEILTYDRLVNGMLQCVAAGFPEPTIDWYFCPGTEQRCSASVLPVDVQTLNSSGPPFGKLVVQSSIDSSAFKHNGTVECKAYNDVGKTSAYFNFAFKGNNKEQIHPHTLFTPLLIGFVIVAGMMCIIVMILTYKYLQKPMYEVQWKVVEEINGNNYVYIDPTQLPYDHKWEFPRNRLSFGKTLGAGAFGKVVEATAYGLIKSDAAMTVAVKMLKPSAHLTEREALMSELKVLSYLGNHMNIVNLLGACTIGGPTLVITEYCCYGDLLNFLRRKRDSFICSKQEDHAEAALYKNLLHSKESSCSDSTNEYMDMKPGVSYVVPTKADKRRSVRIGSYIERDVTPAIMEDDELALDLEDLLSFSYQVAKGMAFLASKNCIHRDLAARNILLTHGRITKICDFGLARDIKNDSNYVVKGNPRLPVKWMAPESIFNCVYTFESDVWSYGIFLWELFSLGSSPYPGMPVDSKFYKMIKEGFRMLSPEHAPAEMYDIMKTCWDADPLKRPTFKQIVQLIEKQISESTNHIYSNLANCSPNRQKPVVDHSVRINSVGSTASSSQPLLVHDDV
Sequence of CSNK2A1 (P68400 whole entry): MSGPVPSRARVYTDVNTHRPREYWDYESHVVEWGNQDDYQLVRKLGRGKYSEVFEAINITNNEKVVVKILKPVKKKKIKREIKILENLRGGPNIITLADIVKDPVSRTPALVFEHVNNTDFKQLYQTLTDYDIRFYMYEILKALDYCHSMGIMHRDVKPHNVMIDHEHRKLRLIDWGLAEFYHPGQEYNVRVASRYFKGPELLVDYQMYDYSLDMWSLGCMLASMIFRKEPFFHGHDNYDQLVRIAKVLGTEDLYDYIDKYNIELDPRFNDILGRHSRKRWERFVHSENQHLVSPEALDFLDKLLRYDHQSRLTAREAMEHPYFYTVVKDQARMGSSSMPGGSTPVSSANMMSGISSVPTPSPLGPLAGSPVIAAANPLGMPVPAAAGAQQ

`CNc1c(-c2ccc(C(=O)N3CCC(N4CCOCC4)CC3)cc2)cnc2[nH]cc(Cl)c12` [Compound 96, (4-(3-chloro-4-(methylamino)-1H-pyrrolo[2,3-b]pyridin-5-yl)phenyl)(4-morpholinopiperidin-1-yl)methanone]: the remaining binding at 1 µM in assay [1] worked out at 100%; in [2], 64%; in assay [3], 14%; in assay [4], 93%; in assay [5] it was 72%; in assay [6], 66%. In addition, the remaining binding at 1 µM came to 45% in assay [7], 97% in assay [8], 35% in [9] and 53% in assay [10].

`O=C(c1ccc(-c2cnc3[nH]cc(Cl)c3c2NC2CCCC2)cc1)N1CCC(N2CCOCC2)CC1` [Compound 101, (4-(3-chloro-4-(cyclopentylamino)-1H-pyrrolo[2,3-b]pyridin-5-yl)phenyl)(4-morpholinopiperidin-1-yl)methanone]: the remaining binding at 1 µM was 85% in assay [1]; 100% in assay [2]; 89% in assay [3]; 82% in [4]; 100% in assay [5]; 87% in [6]. Moreover, the remaining binding at 1 µM came out at 92% in assay [7], 97% in assay [8], 100% in assay [9] and 100% in [10].

In the case of `CNc1c(-c2cnn([C@H]3CCN(C(C)=O)C[C@@H]3F)c2)cnc2[nH]cc(Cl)c12` [Compound 77, 1-((3S,4S)-4-(4-(3-chloro-4-(methylamino)-1H-pyrrolo[2,3-b]pyridin-5-yl)-1H-pyrazol-1-yl)-3-fluoropiperidin-1-yl)ethan-1-one], the remaining binding at 1 µM in assay [1] came out at 100%; in [2] it was 69%; in [3], 29%; in assay [4] it was 86%; in assay [5] it was 75%; in assay [6], 93%. The remaining binding at 1 µM came out at 11% in assay [7], 98% in assay [8], 35% in assay [9] and 46% in assay [10].
